From US11999716B2, “WDR5 inhibitors and modulators” (priority 2018, dated 2024) come the findings set out here.

The test system of this assay is MV4:11 human cancer cell lines. The experiment in a line: Cellular viability / anti-proliferative activity, CellTiter-Glo, 5 day protocol. Conditions: Homo sapiens, MV4-11, 120 h, MV4:11 cells; 5 day incubation; CellTiter-Glo; mean of minimum two replicates; read-out: GI50 on cellular proliferation of MV4:11 human cancer cell lines. The assay is classed as cell-based. As to the method: Cellular Viability of Human Tumor Cell Lines
Anti proliferative activity using MLL-harboring cell lines. […] Viability assays are performed by dispensing 200 cells at 7200 cells/mL into each well of an opaque 384-well plate and adding compounds at the indicated concentrations in a final volume of 32 μL and a final concentration of DMSO of 0.3% for all samples. A certain range of compound concentrations is made through a series of 2-fold dilutions starting 30 μM at the highest, total 22 dilutions. After a set incubation period, 5 day protocol, the viability of cells in each well is assessed using the CellTiter-Glo assay (Promega), read on a 96 Microplane Luminometer (Cytation 3, BioTek). Serial dilutions of each cell type are performed in all assays to generate standard curves and the final densities of cells are determined within the dynamic range of the instrument. GI50 values are calculated based on XLfit software (IDBS, Guildford, UK) with Sigmoidal Dose-Response Model. Each compound is tested in minimum of two replicates. Data are expressed as mean.

`Cc1nccn1Cc1cc2c(c(-c3cn(C)nc3C(F)(F)F)c1)CCN(Cc1cccc(C3CC3)c1)C2=O` [Example 234, 2-(3-Cyclopropylbenzyl)-7-((2-methyl-1H-imidazol-1-yl)methyl)-5-(1-methyl-3-(trifluoromethyl)-1H-pyrazol-4-yl)-3,4-dihydroisoquinolin-1(2H)-one]: the GI50 came out at 0.283 µM. As for `Cc1ccnc(CN2CCc3c(cc(Cn4ccn(C5CC5)c4=N)cc3-c3cn(C)nc3C(F)(F)F)C2=O)c1` [Example 51, 7-((3-Cyclopropyl-2-imino-2,3-dihydro-1H-imidazol-1-yl)methyl)-5-(1-methyl-3-(trifluoromethyl)-1H-pyrazol-4-yl)-2-((4-methylpyridin-2-yl)methyl)-3,4-dihydroisoquinolin-1(2H)-one], the figure is < 0.05 µM. Regarding `Cc1cnc(CN2CCc3c(cc(Cn4ccnc4C)cc3-c3cn(C)nc3C(F)(F)F)C2=O)o1` [Example 194, 7-((2-Methyl-1H-imidazol-1-yl)methyl)-5-(1-methyl-3-(trifluoromethyl)-1H-pyrazol-4-yl)-2-((5-methyloxazol-2-yl)methyl)-3,4-dihydroisoquinolin-1(2H)-one], the GI50 amounted to 0.252 µM.

Take `Cc1cncc([C@@H](C)N2CCc3c(cc(Cn4ccnc4C)cc3-c3cn(C)nc3C(F)(F)F)C2=O)c1` [Example 197, (R)-7-((2-Methyl-1H-imidazol-1-yl)methyl)-5-(1-methyl-3-(trifluoromethyl)-1H-pyrazol-4-yl)-2-(1-(5-methylpyridin-3-yl)ethyl)-3,4-dihydroisoquinolin-1(2H)-one]: the GI50 was < 0.05 µM. In the case of `COc1ccnc(CN2Cc3c(cc(Cn4ccn(C)c4=N)cc3-c3ccc(F)cc3C)C2=O)c1` [Example 138, 4-(4-Fluoro-2-methylphenyl)-6-((2-imino-3-methyl-2,3-dihydro-1H-imidazol-1-yl)methyl)-2-((4-methoxypyridin-2-yl)methyl)isoindolin-1-one], the GI50 stood at 2.28 µM. The value for `COc1ccnc(CN2CCc3c(cc(CN4CCN(C)C4=N)cc3-c3cn(C)nc3C)C2=O)c1` [Example 47, 5-(1,3-Dimethyl-1H-pyrazol-4-yl)-7-((2-imino-3-methylimidazolidin-1-yl)methyl)-2-((4-methoxypyridin-2-yl)methyl)-3,4-dihydroisoquinolin-1(2H)-one] was 0.165 µM; that for `CCn1cc(-c2cc(Cn3ccsc3=N)cc3c2CCN([C@@H](C)c2cc(OC)ccn2)C3=O)c(C(F)(F)F)n1` [Example 104, (S)-5-(1-Ethyl-3-(trifluoromethyl)-1H-pyrazol-4-yl)-7-((2-iminothiazol-3(2H)-yl)methyl)-2-(1-(4-methoxypyridin-2-yl)ethyl)-3,4-dihydroisoquinolin-1(2H)-one] was < 0.05 µM; that for `Cc1cc(CN2CCc3c(cc(Cn4ccn(C)c4=N)cc3-c3cccnc3C)C2=O)ccc1Cl` [Example 27, 2-(4-Chloro-3-methylbenzyl)-7-((2-imino-3-methyl-2,3-dihydro-1H-imidazol-1-yl)methyl)-5-(2-methylpyridin-3-yl)-3,4-dihydroisoquinolin-1(2H)-one] was > 0.938 µM. As for `COc1ccnc([C@H](C)N2CCc3c(cc(Cn4ccsc4=N)cc3-c3cn(C)nc3C(F)(F)F)C2=O)c1` [Example 105, (S)-7-((2-iminothiazol-3(2H)-yl)methyl)-2-(1-(4-methoxypyridin-2-yl)ethyl)-5-(1-methyl-3-(trifluoromethyl)-1H-pyrazol-4-yl)-3,4-dihydroisoquinolin-1(2H)-one], the figure is < 0.05 µM; as for `Cc1cc(CN2CCc3c(cc(Cn4ccn(C)c4=N)cc3-c3ccc(F)cc3C)C2=O)ccc1Cl` [Example 28, 2-(4-Chloro-3-methylbenzyl)-5-(4-fluoro-2-methylphenyl)-7-((2-imino-3-methyl-2,3-dihydro-1H-imidazol-1-yl)methyl)-3,4-dihydroisoquinolin-1(2H)-one], > 0.938 µM.

Consider `CCn1cc(CN2CCc3c(cc(Cn4ccoc4=N)cc3-c3cn(CC)nc3C(F)(F)F)C2=O)nn1` [Example 96, 2-((1-Ethyl-1H-1,2,3-triazol-4-yl)methyl)-5-(1-ethyl-3-(trifluoromethyl)-1H-pyrazol-4-yl)-7-((2-iminooxazol-3(2H)-yl)methyl)-3,4-dihydroisoquinolin-1(2H)-one], for which the GI50 is < 0.05 µM. As for `Cn1ccn(Cc2cc3c(cc2F)CCN(Cc2ccc(Cl)c(Cl)c2)C3=O)c1=N` [Example 26, 2-(3,4-Dichlorobenzyl)-6-fluoro-7-((2-imino-3-methyl-2,3-dihydro-1H-imidazol-1-yl)methyl)-3,4-dihydroisoquinolin-1(2H)-one], the figure is > 0.938 µM; as for `Cc1cc([C@H](C)N2CCc3c(OCC4CC4)cc(Cn4ccn(C)c4=N)cc3C2=O)ccc1F` [Example 78, (S)-5-(Cyclopropylmethoxy)-2-(1-(4-fluoro-3-methylphenyl)ethyl)-7-((2-imino-3-methyl-2,3-dihydro-1H-imidazol-1-yl)methyl)-3,4-dihydroisoquinolin-1(2H)-one], > 0.938 µM.

With `CCc1ccnc(CN2CCc3c(cc(Cn4cnn(C)c4=N)cc3-c3cn(CC)nc3C(F)(F)F)C2=O)c1` [Example 129, 5-(1-Ethyl-3-(trifluoromethyl)-1H-pyrazol-4-yl)-2-((4-ethylpyridin-2-yl)methyl)-7-((5-imino-1-methyl-1,5-dihydro-4H-1,2,4-triazol-4-yl)methyl)-3,4-dihydroisoquinolin-1(2H)-one], the GI50 is < 0.05 µM. In the case of `COc1ccnc(CN2CCc3c(cc(Cn4nc5ccccn5c4=N)cc3-c3cn(C)nc3C(F)(F)F)C2=O)c1` [Example 125, 7-((3-Imino-[1,2,4]triazolo[4,3-a]pyridin-2(3H)-yl)methyl)-2-((4-methoxypyridin-2-yl)methyl)-5-(1-methyl-3-(trifluoromethyl)-1H-pyrazol-4-yl)-3,4-dihydroisoquinolin-1(2H)-one], the GI50 was > 0.938 µM. As for `CCn1cc(-c2cc(Cn3ccnc3)cc3c2CCN([C@H](c2cc(C)ccn2)C2CC2)C3=O)c(C(F)(F)F)n1` [Example 245, (S)-7-((1H-imidazol-1-yl)methyl)-2-(cyclopropyl(4-methylpyridin-2-yl)methyl)-5-(1-ethyl-3-(trifluoromethyl)-1H-pyrazol-4-yl)-3,4-dihydroisoquinolin-1(2H)-one], the GI50 was < 0.05 µM. The value for `Cc1nccn1Cc1cc2c(c(-c3cn(C)nc3C(F)(F)F)c1)CCN(Cc1cc(Br)cc3c1OCC3)C2=O` [Example 216, 2-((5-Bromo-2,3-dihydrobenzofuran-7-yl)methyl)-7-((2-methyl-1H-imidazol-1-yl)methyl)-5-(1-methyl-3-(trifluoromethyl)-1H-pyrazol-4-yl)-3,4-dihydroisoquinolin-1(2H)-one] was 0.056 µM; that for `COc1cc(CN2CCc3c(cc(CN4CCOC4=N)cc3-c3cccnc3C(F)(F)F)C2=O)cc(OC)c1` [Example 82, 2-(3,5-Dimethoxybenzyl)-7-((2-iminooxazolidin-3-yl)methyl)-5-(2-(trifluoromethyl)pyridin-3-yl)-3,4-dihydroisoquinolin-1(2H)-one] was 0.055 µM; that for `CCn1cc(-c2cc(Cn3ccnc3C3CC3)cc3c2CCN(Cc2cc(C)nn2C)C3=O)c(C(F)(F)F)n1` [Example 14, 7-((2-Cyclopropyl-1H-imidazol-1-yl)methyl)-2-((1,3-dimethyl-1H-pyrazol-5-yl)methyl)-5-(1-ethyl-3-(trifluoromethyl)-1H-pyrazol-4-yl)-3,4-dihydroisoquinolin-1(2H)-one] was > 0.938 µM. On to `Cc1ccnc(CN2CCc3c(cc(Cn4ccoc4=N)cc3-c3cn(C)nc3C(F)(F)F)C2=O)c1` [Example 88, 7-((2-Iminooxazol-3(2H)-yl)methyl)-5-(1-methyl-3-(trifluoromethyl)-1H-pyrazol-4-yl)-2-((4-methylpyridin-2-yl)methyl)-3,4-dihydroisoquinolin-1(2H)-one], for which the GI50 is < 0.05 µM. As for `Cn1cc(-c2cc(Cn3ccoc3=N)cc3c2CCN(Cc2cc(C4CC4)nn2C)C3=O)c(C(F)(F)F)n1` [Example 150, 2-((3-Cyclopropyl-1-methyl-1H-pyrazol-5-yl)methyl)-7-((2-iminooxazol-3(2H)-yl)methyl)-5-(1-methyl-3-(trifluoromethyl)-1H-pyrazol-4-yl)-3,4-dihydroisoquinolin-1(2H)-one], the GI50 is < 0.05 µM. The value for `Cc1cccnc1CN1CCc2c(cc(Cn3ccnc3C)cc2-c2cn(C)nc2C(F)(F)F)C1=O` [Example 181, 7-((2-Methyl-1H-imidazol-1-yl)methyl)-5-(1-methyl-3-(trifluoromethyl)-1H-pyrazol-4-yl)-2-((3-methylpyridin-2-yl)methyl)-3,4-dihydroisoquinolin-1(2H)-one] was 3.46 µM; that for `CCn1cc(-c2cc(Cn3ccoc3=N)cc3c2CCN(Cc2cc(OC)ccn2)C3=O)cn1` [Example 87, 5-(1-Ethyl-1H-pyrazol-4-yl)-7-((2-iminooxazol-3(2H)-yl)methyl)-2-((4-methoxypyridin-2-yl)methyl)-3,4-dihydroisoquinolin-1(2H)-one] was 0.837 µM; that for `COc1ccnc([C@H](C)N2CCc3c(cc(Cn4ccnc4C)cc3-c3ccc(F)cc3C)C2=O)c1` [Example 168, (S)-5-(4-Fluoro-2-methylphenyl)-2-(1-(4-methoxypyridin-2-yl)ethyl)-7-((2-methyl-1H-imidazol-1-yl)methyl)-3,4-dihydroisoquinolin-1(2H)-one] was < 0.05 µM.
